Results reported in ChEMBL document CHEMBL3045082, “Novel quinazolinone derivatives: synthesis and antimicrobial activity” (2013).
≈ marks a conversion by molar mass, not a printed value. Calls of active or inactive are those of the source. No cut-off for these calls is given here.

Key:
[1] = system: Pseudomonas savastanoi pv. phaseolicola; assay: Antimicrobial activity against Pseudomonas syringae pv. phaseolicola GSPB 2828 assessed as diameter of growth inhibition zone at 1 mg/ml after 24 hr by agar diffusion method; type: functional; conditions: GSPB 2828, 24 h, read-out: DIZ
[2] = system: Pseudomonas fluorescens; assay: Antimicrobial activity against Pseudomonas fluorescens S 97 assessed as growth inhibition after 24 to 48 hr by two-fold serial dilution method; type: functional
[3] = system: Pseudomonas savastanoi pv. phaseolicola; assay: Antimicrobial activity against Pseudomonas syringae pv. phaseolicola GSPB 2828 assessed as growth inhibition after 24 to 48 hr by two-fold serial dilution method; type: functional
[4] = system: Pseudomonas fluorescens; assay: Antimicrobial activity against Pseudomonas fluorescens S 97 assessed as diameter of growth inhibition zone at 1 mg/ml after 24 hr by agar diffusion method; type: functional; conditions: S 97, 24 h, read-out: DIZ
[5] = system: Streptococcus pyogenes; assay: Antimicrobial activity against Streptococcus pyogenes ATCC 19615 assessed as diameter of growth inhibition zone at 1 mg/ml after 24 hr by agar diffusion method; type: functional; conditions: ATCC 19615, 24 h, read-out: DIZ
[6] = system: Streptococcus pyogenes; assay: Antimicrobial activity against Streptococcus pyogenes ATCC 19615 assessed as growth inhibition after 24 to 48 hr by two-fold serial dilution method; type: functional
[7] = system: Staphylococcus aureus; assay: Antimicrobial activity against Staphylococcus aureus ATCC 25923 assessed as growth inhibition after 24 to 48 hr by two-fold serial dilution method; type: functional
[8] = system: Staphylococcus aureus; assay: Antimicrobial activity against Staphylococcus aureus ATCC 25923 assessed as diameter of growth inhibition zone at 1 mg/ml after 24 hr by agar diffusion method; type: functional; conditions: ATCC 25923, 24 h, read-out: DIZ
[9] = system: Aspergillus fumigatus; assay: Antimicrobial activity against Aspergillus fumigatus assessed as diameter of growth inhibition zone at 1 mg/ml by agar diffusion method; conditions: read-out: DIZ
[10] = system: Aspergillus fumigatus; assay: Antimicrobial activity against Aspergillus fumigatus assessed as growth inhibition after 24 to 48 hr by two-fold serial dilution method; type: functional
[11] = system: Fusarium oxysporum; assay: Antimicrobial activity against Fusarium oxysporum assessed as growth inhibition after 24 to 48 hr by two-fold serial dilution method; type: functional
[12] = system: Fusarium oxysporum; assay: Antimicrobial activity against Fusarium oxysporum assessed as diameter of growth inhibition zone at 1 mg/ml […] by agar diffusion method; type: functional; conditions: read-out: DIZ
[13] = system: Staphylococcus aureus; assay: Antimicrobial activity against Staphylococcus aureus ATCC 25923 assessed as growth inhibition after 24 to 48 hr by two-fold serial dilution method relative to chloramphenicol; type: functional
[14] = system: Streptococcus pyogenes; assay: Antimicrobial activity against Streptococcus pyogenes ATCC 19615 assessed as growth inhibition after 24 to 48 hr by two-fold serial dilution method relative to chloramphenicol; type: functional
[15] = system: Staphylococcus aureus; assay: Antimicrobial activity against Staphylococcus aureus ATCC 25923 assessed as growth inhibition after 24 to 48 hr by two-fold serial dilution method relative to cephalothin; type: functional

MIC [2]	MIC [3] [µg/mL]	MIC [6] [µg/mL]	MIC [7] [µg/mL]	MIC [10]	MIC [11] [µg/mL]	SMILES	zone of inhibition at 1000 µg/mL [1] [mm]	zone of inhibition at 1000 µg/mL [4] [mm]	zone of inhibition at 1000 µg/mL [5] [mm]	zone of inhibition at 1000 µg/mL [8] [mm]	zone of inhibition at 1000 µg/mL [9] [mm]	zone of inhibition at 1000 µg/mL [12] [mm]	growth inhibition (GI) [13] [%]	growth inhibition (GI) [14] [%]	growth inhibition (GI) [15] [%]
6.25 µg/mL (≈ 15.8 µM)	6.25 (≈ 15.8 µM)	6.25 (≈ 15.8 µM)	6.25 (≈ 15.8 µM)	–	–	CC(=O)OCC1=C(C(=O)O)N2C(=O)[C@@H](NC(=O)Cc3cccs3)[C@H]2SC1 [CEPHALOTHIN]	38	37	37	36	–	–	–	–	–
50 µg/mL (≈ 103 µM)	–	–	–	25 µg/mL (≈ 51.7 µM)	6.25 (≈ 12.9 µM)	Cc1ccc(S(=O)(=O)Oc2ccc(-c3nc4ccccc4c(=O)n3-c3ccc(N)cc3)cc2)cc1	15	18	15	14	26	37	–	–	–
50 µg/mL (≈ 111 µM)	–	6.25 (≈ 13.9 µM)	3.12 (≈ 6.97 µM)	–	25 (≈ 55.7 µM)	Cc1ccc(S(=O)(=O)Oc2ccc(-c3nc4ccccc4c4nc(=S)[nH]n34)cc2)cc1	15	19	37	44	14	26	–	–	–
50 µg/mL (≈ 90.8 µM)	–	–	50 (≈ 90.8 µM)	6.25 µg/mL (≈ 11.4 µM)	–	Cc1ccc(S(=O)(=O)Oc2ccc(-c3nc4ccccc4c(=O)n3-n3c(C)nc4ccccc4c3=O)cc2)cc1	14	19	15	19	38	15	–	–	–
–	–	6.25 (≈ 13.1 µM)	6.25 (≈ 13.1 µM)	50 µg/mL (≈ 105 µM)	–	Cc1ccc(S(=O)(=O)Oc2ccc(-c3nc4ccccc4c(=O)n3-c3nccs3)cc2)cc1	14	16	38	38	19	15	50	50	–
–	50 (≈ 103 µM)	25 (≈ 51.7 µM)	25 (≈ 51.7 µM)	inactive	–	Cc1ccc(S(=O)(=O)Oc2ccc(C(=O)Nc3ccccc3-c3nc4ccccc4[nH]3)cc2)cc1	19	14	25	25	–	15	–	–	–
50 µg/mL (≈ 115 µM)	–	6.25 (≈ 14.3 µM)	12.5 (≈ 28.6 µM)	inactive	50 (≈ 115 µM)	Cc1ccc(S(=O)(=O)Oc2ccc(-c3nnnn3-c3ccccc3C(=O)O)cc2)cc1	14	20	38	32	–	19	25	–	50
50 µg/mL (≈ 95.1 µM)	50 (≈ 95.1 µM)	6.25 (≈ 11.9 µM)	6.25 (≈ 11.9 µM)	inactive	–	Cc1ccc(S(=O)(=O)Oc2ccc(-c3nc4ccccc4c(=O)n3-c3nc4ccccc4s3)cc2)cc1	19	20	37	38	–	14	50	50	–
50 µg/mL (≈ 120 µM)	25 (≈ 59.9 µM)	6.25 (≈ 15 µM)	25 (≈ 59.9 µM)	–	–	Cc1ccc(S(=O)(=O)Oc2ccc(C3=Nc4ccccc4C4=NCCN34)cc2)cc1	26	19	37	25	14	15	–	–	–
–	50 (≈ 86.4 µM)	–	12.5 (≈ 21.6 µM)	–	12.5 (≈ 21.6 µM)	Cc1ccc(S(=O)(=O)Oc2ccc(-c3nc4ccccc4c(=O)n3C3=NNC(=O)C3/N=N/c3ccccc3)cc2)cc1 (centres undefined)	20	16	14	32	16	31	25	–	50
–	6.25 (≈ 14.5 µM)	–	–	–	50 (≈ 116 µM)	Cc1ccc(S(=O)(=O)Oc2ccc(-c3nc4ccccc4c4nc(=O)[nH]n34)cc2)cc1	38	15	15	15	15	19	–	–	–
inactive	50 (≈ 79.8 µM)	6.25 (≈ 9.97 µM)	3.12 (≈ 4.99 µM)	12.5 µg/mL (≈ 19.9 µM)	–	Cc1ccc(C2CC(c3ccc(-n4c(-c5ccc(OS(=O)(=O)c6ccc(C)cc6)cc5)nc5ccccc5c4=O)cc3)=NN2)cc1 (centres undefined)	19	–	38	43	31	14	–	50	–
6.25 µg/mL (≈ 13.4 µM)	–	25 (≈ 53.7 µM)	25 (≈ 53.7 µM)	50 µg/mL (≈ 107 µM)	–	Cc1ccc(S(=O)(=O)Oc2ccc(-c3nc4ccccc4c4nc5ccccc5n34)cc2)cc1	14	37	25	26	20	16	–	–	–
inactive	50 (≈ 81.6 µM)	6.25 (≈ 10.2 µM)	3.12 (≈ 5.1 µM)	12.5 µg/mL (≈ 20.4 µM)	–	Cc1ccc(S(=O)(=O)Oc2ccc(-c3nc4ccccc4c(=O)n3-c3ccc(C4=NNC(c5ccccc5)C4)cc3)cc2)cc1 (centres undefined)	19	–	38	43	31	14	–	50	–
6.25 µg/mL (≈ 19.3 µM)	6.25 (≈ 19.3 µM)	3.12 (≈ 9.67 µM)	3.12 (≈ 9.67 µM)	–	–	O=C(N[C@H](CO)[C@H](O)c1ccc([N+](=O)[O-])cc1)C(Cl)Cl [CHLORAMPHENICOL]	37	38	44	42	–	–	–	–	–
inactive	50 (≈ 77.8 µM)	6.25 (≈ 9.72 µM)	3.12 (≈ 4.86 µM)	12.5 µg/mL (≈ 19.4 µM)	–	COc1ccc(C2CC(c3ccc(-n4c(-c5ccc(OS(=O)(=O)c6ccc(C)cc6)cc5)nc5ccccc5c4=O)cc3)=NN2)cc1 (centres undefined)	19	–	38	43	31	14	–	50	–

SMILES	MIC [2]	MIC [3] [µg/mL]	MIC [6] [µg/mL]	MIC [7] [µg/mL]	MIC [10]	MIC [11] [µg/mL]	zone of inhibition at 1000 µg/mL [1] [mm]	zone of inhibition at 1000 µg/mL [4] [mm]	zone of inhibition at 1000 µg/mL [5] [mm]	zone of inhibition at 1000 µg/mL [8] [mm]	zone of inhibition at 1000 µg/mL [9] [mm]	zone of inhibition at 1000 µg/mL [12] [mm]	growth inhibition (GI) [13] [%]	growth inhibition (GI) [14] [%]	growth inhibition (GI) [15] [%]
C[C@@H]1C[C@@H]([C@H](O)CC2CC(=O)NC(=O)C2)C(=O)[C@@H](C)C1 [CYCLOHEXIMIDE]	–	–	–	–	3.12 µg/mL (≈ 11.1 µM)	3.12 (≈ 11.1 µM)	–	–	–	–	42	43	–	–	–
